# Source: patent publication US20240383874A1, “BENZENE RING DERIVATIVE, AND COMPOSITION AND PHARMACEUTICAL USE THEREOF” (Xizang Haisco Pharmaceutical Co., Ltd., priority 2020, published 2024)
# Where two headings read alike, the source gives them in different places.
# Key:
# [1] = tested on: 22RV1 cells; test: Experiment 1 on inhibiting 22RV1 cell proliferation (5 days, CellTiter-Glo); assay type: cell-based; details: 1% css-FBS phenol red-free medium, incubated with compound 5 days, read-out: IC50 values on proliferation inhibition of 22RV1 cells
# Protocol: Prostate cancer cells 22RV1 were purchased from ATCC, the cell medium was RPMI 1640+10% FBS, and the cells were cultured in an incubator at 37° C. under 5% CO2. On day 1, the cells in an exponential phase were collected. With a 1% css-FBS phenol red-free medium, the cell suspension was adjusted to a corresponding concentration, plated at 2000 cells/well and incubated overnight. On day 2, compounds at different concentrations were added, and the plate was placed in the incubator and incubated for further 5 days. After the incubation was completed, according to operation instructions for a CellTiter-Glo kit (Promega, G7573), 50 μL of CTG solution, which was already pre-melted and equilibrated to room temperature, was added to each well, and the mixtures were uniformly mixed for 2 min using a microplate shaker. The plate was placed at room temperature for 10 min, and then fluorescence signal values were measured using a microplate reader (PHERAstar FSX). The results were processed according to formula (1), the survival rate of the compound at different concentrations was calculated, and the IC50 value of the compound with a survival rate of 50% was calculated using origin9.2 software with DoseResp function, wherein RLUcompound was the readout of the treated group, and RLUcontrol was the average value of the DMSO vehicle control group.
# [2] = Pharmacokinetic test in beagle dogs; assay type: in vivo; details: dog, plasma, oral; male beagle dogs, i.v. 1 mg/kg and i.g. 10 mg/kg, single dose
# Protocol: Test objective: a single dose of test compounds was administered to beagle dogs intravenously and intragastrically, and the concentrations of the test compounds in plasma of the beagle dogs were measured to evaluate pharmacokinetic characteristics of the test compounds in the beagle dogs.
# Test animals: male beagle dogs, about 8-11 kg, 6 beagle dogs/compound, purchased from Beijing Marshall Biotechnology Co., Ltd.
# Test method: on the day of the test, 6 beagle dogs were randomly grouped according to their body weights. The animals were fasted with water available for 12 to 14 hours one day before the administration of a test compound, and were fed 4 hours after the administration. The administration was performed according to Table 10.
# Sampling: before and after the administration, 1 ml of blood was taken from the limb veins, and placed in an EDTAK2 centrifuge tube. Centrifugation was carried out at 5000 rpm at 4° C. for 10 min, and the plasma was collected.
# Time points for blood collection: 0 min, 5 min, 15 min, 30 min, 1 h, 2 h, 4 h, 6 h, 8 h, 10 h, 12 h and 24 h. Before analysis and detection, all samples were stored at −80° C. The samples were analyzed quantitatively by LC-MS/MS.
# [3] = biological target: T1, AR splice variant 7 (AR-V7) (Homo sapiens, UniProt P10275); test: Degradation experiment on AR splice variant 7 (AR-V7) in 22RV1 cells; assay type: cell-based; details: 24 h, degradation rate 50% relative to vehicle control
# T1 construct: host or cells: 22RV1 prostate cancer cells
# T1 sequence (P10275 1-644 isoform P10275-3): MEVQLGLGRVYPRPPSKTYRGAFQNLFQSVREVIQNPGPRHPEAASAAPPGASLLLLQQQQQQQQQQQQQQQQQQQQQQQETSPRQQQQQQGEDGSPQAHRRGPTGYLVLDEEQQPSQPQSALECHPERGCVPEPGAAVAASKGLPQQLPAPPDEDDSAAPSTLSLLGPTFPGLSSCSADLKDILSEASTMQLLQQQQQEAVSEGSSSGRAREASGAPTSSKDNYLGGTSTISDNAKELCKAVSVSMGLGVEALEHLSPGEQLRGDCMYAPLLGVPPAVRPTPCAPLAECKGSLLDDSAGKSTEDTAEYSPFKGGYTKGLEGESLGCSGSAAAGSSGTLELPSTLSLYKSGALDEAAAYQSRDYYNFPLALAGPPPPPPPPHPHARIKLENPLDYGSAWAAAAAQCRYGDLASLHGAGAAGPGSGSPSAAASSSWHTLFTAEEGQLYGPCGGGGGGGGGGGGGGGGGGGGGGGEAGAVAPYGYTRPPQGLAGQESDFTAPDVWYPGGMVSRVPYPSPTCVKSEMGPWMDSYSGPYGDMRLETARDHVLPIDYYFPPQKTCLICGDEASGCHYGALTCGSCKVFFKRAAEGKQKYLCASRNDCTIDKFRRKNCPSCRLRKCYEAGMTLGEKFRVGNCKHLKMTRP
# Protocol: Prostate cancer cells 22RV1 were purchased from ATCC, the cell medium was 1640+10% FBS, and the cells were cultured in an incubator at 37° C. under 5% CO2. On day 1, the cells in an exponential phase were collected. With a 1% css-FBS phenol red-free medium, the cell suspension was adjusted to a corresponding concentration and plated into a 6-well plate at 1 mL/well and 300000 cells/well. The next day, a 1% css-FBS phenol-free medium containing the compound to be tested was added, a 1% css-FBS phenol-free medium containing 0.2% DMSO was added to one well as DMSO vehicle control, and the 6-well plate was cultured in an incubator at 37° C. under 5% CO2. After 24 h, the cells were digested with pancreatin and collected into a 1.5 mL centrifuge tube. […] The supernatant protein samples were collected, and protein quantification was performed by a BCA method. AR-V7 was detected using fully automatic protein expression quantitative analysis, which involved diluting the protein to be tested to 2 mg/mL. […] The prepared reagents were successively added to an assay plate according to instructions of the kit and detected on an instrument. Western blot band processing was performed using “Compass for SW”, a fully automatic protein expression quantitative analysis software, in which western blot bands were automatically simulated based on signal values. […]
IC50 [1],"IC50 ([1]; Homo sapiens, 22Rv1, 120 h)",bioavailability [2],DC50 [3],SMILES
0.835 µM,0.5 to 1.5 µM,,,"O=C1CCC(N2C(=O)c3ccc(N4CCN(CC5CCN(S(=O)(=O)Nc6ccc(Cl)cc6C(=O)Nc6ccc(C(F)(F)F)cc6Cl)CC5)CC4)cc3C2=O)C(=O)N1 (stereo not shown) [Compound 1, 5-chloro-N-(2-chloro-4-(trifluoromethyl)phenyl)-2-{[(4-[(4-(2-(2,6-dioxopiperidin-3-yl)-1,3-dioxo-2,3-dihydro-1H-isoindol-5-yl)piperazin-1-yl)methyl]piperidin-1-yl)sulfonyl]amino}benzamide]"
0.594 µM,0.5 to 1.5 µM,,,"O=C1CCC(N2C(=O)c3ccc(N4CC(N5CCN(S(=O)(=O)Nc6ccc(Cl)cc6-c6nc7cc(C(F)(F)F)cc(Cl)c7[nH]6)CC5)C4)cc3C2=O)C(=O)N1 (stereo not shown) [Compound 2, N-(4-chloro-2-(7-chloro-5-(trifluoromethyl)-1H-1,3-benzodiazol-2-yl)phenyl)-4-(1-(2-(2,6-dioxopiperidin-3-yl)-1,3-dioxo-2,3-dihydro-1H-isoindol-5-yl)azetidin-3-yl)piperazine-1-sulfonamide]"
1.24 µM,,,,"O=C1CCC(N2C(=O)c3ccc(N4CCC(CN5CCN(S(=O)(=O)Nc6ccc(Cl)cc6C(=O)Nc6ccc(C(F)(F)F)cc6Cl)CC5)CC4)cc3C2=O)C(=O)N1 (stereo not shown) [Compound 3, 5-chloro-N-(2-chloro-4-(trifluoromethyl)phenyl)-2-((4-((1-(2-(2,6-dioxopiperidin-3-yl)-1,3-dioxoisoindolin-5-yl)piperidin-4-yl)methyl)piperazine)-1-sulfonamido)benzamide]"
,,> 15%,,"COc1c(Cl)cc(C(C)(C)c2ccc(OCc3ccnc(N4CCC(CN5CCC(C6CCN(c7ccc8c(c7)n(C)c(=O)n8C7CCC(=O)NC7=O)CC6)CC5)CC4)n3)cc2)cc1C#N (stereo not shown) [Compound 97, 3-chloro-5-(2-(4-((2-(4-((1′-(1-(2,6-dioxopiperidin-3-yl)-3-methyl-2-oxo-2,3-dihydro-1H-benzo[d]imidazol-5-yl)-[4,4′-bipiperidin]-1-yl)methyl)piperidin-1-yl)pyrimidin-4-yl)methoxy)phenyl)propan-2-yl)-2-methoxybenzonitrile]"
,,,3.71 µM,"COc1c(Cl)cc(C(C)(C)c2ccc(OCc3ccnc(N4CCC(CN5CCC(C6CCN(c7ccc(C8CCC(=O)NC8=O)cc7)CC6)CC5)CC4)n3)cc2)cc1C#N (stereo not shown) [Compound 119, 3-chloro-5-(2-(4-((2-(4-((1′-(4-(2,6-dioxopiperidin-3-yl)phenyl)-[4,4′-bipiperidin]-1-yl)methyl)piperidin-1-yl)pyrimidin-4-yl)methoxy)phenyl)propan-2-yl)-2-methoxybenzonitrile]"
